# Legend:
# CSNK2 = test: In vivo CSNK2 inhibition (substrate phosphorylation in lungs); parameters: species or system Balb/c mice; details: 30 mg/kg p.o. b.i.d.
# Procedure: Balb/c mice (female, 8-10 weeks old, from Envigo, Inotiv, Indianapolis, IN, USA) were treated with compound 2 at 30 mg/kg p.o. in a vehicle (DMSO/PEG-400/Water (v/v/v), 10:30:60). Mice were dosed every 12 h for a total of 36 h (3 doses). At the determined time points, mice were euthanized using an overdose of isoflurane (Baxter, Deerfield, IL, USA). Blood was collected via cardiac puncture and lung lobes were collected for downstream processing and analysis. Recovered blood was placed in EDTA tubes, spun at 5000× g in a microcentrifuge and the recovered plasma transferred to a clean tube and frozen at -80 °C until analysis. The left lung lobe was added to a 2 mL O-ring skirted tube containing 750 μL of 1 × PBS containing Phos Stop (per the manufacturer's recommendation, Roche) and glass beads. Lungs were homogenized for 60 s at 6000 rpm in a Roche MagNA Lyser. Homogenates were centrifuged for 5 min at 10,000 rpm and 500 μL of the homogenate was transferred to a clean tube and frozen at -80 °C until analysis. […] Samples were quantified using the Piece Rapid Gold BCA Protein Assay kit (ThermoFisher, A53226, Waltham, MA, USA), and 50 μg protein was run on 4-20% Tris-Glycine gels and transferred to PVDF. […] Bands were quantified using Fiji and normalized to GAPDH. […]
# Multi-dose PK study = assay type: in vivo; details: Balb/c mice, 30 mg/kg p.o. every 12 h; total plasma concentration factored by fu
# Procedure: In the multi-dose PK study, three male Balb/c mice (6–8 weeks old, 20–30 g) were dosed via oral (p.o.) administration of four doses of compound 2 (30 mg/kg) as a 10 mL/kg volume of 3 mg/mL solution in DMSO/PEG-400/Water (v/v/v, 10:30:60) every 12 h. At 2, 6, 12, 14, 24, 26, 36, 38, and 48 h after the first dose, 0.025 mL of blood was collected from the dorsal metatarsal vein at each time point. Each blood sample was transferred into a plastic microcentrifuge tube containing EDTA-K2 anticoagulant and mixed well with the anticoagulant, then placed on ice prior to centrifugation at 4000× g for 5 min at 4 °C to obtain plasma. The samples were stored in a freezer at −75 ± 15 °C prior to analysis. […] The final compound concentration was calculated by multiplying the detected concentration by a dilution factor of four.
# Concentrations of the test compound in the plasma samples were determined using a Prominence LC-MS/MS system with a DGU-20A5R(C) degasser, LC-30AD pump, CBM-20A system controller, SIL-20AC HT autosampler; Rack changer II, HALO 90A ES-CN (2.7 μm, 2.1 × 50 mm) column, and AB Sciex Triple Quan 5500 LC/MS/MS instrument. […] After centrifugation at 4 °C and 4000 rpm for 15 min, the supernatant was diluted with ultrapure water at a ratio of 1:2 (v/v, 1:2), then 20 µL of diluted supernatant was injected into the LC/MS/MS system for quantitative analysis. […]
# CLK2 = biological target: T1, CLK2 (Homo sapiens, UniProt P49760); test: NanoBRET dose-response CLK2; assay type: cell-based; details: highest concentration tested 30 μM
# T1 construct: expressed in transfected cells; host or cells: HEK293
# T1 sequence (P49760 whole entry): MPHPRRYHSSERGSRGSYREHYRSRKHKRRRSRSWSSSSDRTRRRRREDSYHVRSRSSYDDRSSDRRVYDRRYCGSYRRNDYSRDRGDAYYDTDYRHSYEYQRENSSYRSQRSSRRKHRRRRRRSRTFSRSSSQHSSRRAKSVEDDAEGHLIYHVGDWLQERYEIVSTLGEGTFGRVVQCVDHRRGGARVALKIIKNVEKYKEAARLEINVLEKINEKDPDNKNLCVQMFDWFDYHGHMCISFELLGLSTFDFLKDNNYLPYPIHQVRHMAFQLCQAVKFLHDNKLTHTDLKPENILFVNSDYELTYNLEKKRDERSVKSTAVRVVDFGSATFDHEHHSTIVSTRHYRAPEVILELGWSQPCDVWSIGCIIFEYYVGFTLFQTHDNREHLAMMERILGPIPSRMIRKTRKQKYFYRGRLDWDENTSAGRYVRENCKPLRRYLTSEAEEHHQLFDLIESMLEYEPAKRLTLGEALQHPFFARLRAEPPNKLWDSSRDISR
smiles,measurement,setting,value
"CCC(=O)Nc1cc(Nc2cc(NC3CC3)n3ncc(C#N)c3n2)c(F)cc1N1CCC[C@H](NC)C1 [Compound 2, (S)-N-(5-((3-cyano-7-(cyclopropylamino)pyrazolo[1,5-a]pyrimidin-5-yl)amino)-4-fluoro-2-(3-(methylamino)piperidin-1-yl)phenyl)propionamide]",EIF2S2 (phospho-Ser2) levels normalized to total EIF2S2 in mouse lungs,"CSNK2; 3, 6, 36 h, small decrease at 3 h, p = 0.14",no statistically significant difference
same,AKT (phospho-Ser129) levels normalized to total AKT in mouse lungs,"CSNK2; 3 h time point, p = 0.0028",A decrease in the phosphorylation levels of Ser129 of AKT
same,free plasma Cpeak concentration,Multi-dose PK study,120 to 190 nM
same,IC50,CLK2,> 30 µM
